Experimental data as given in patent US6228602A, “Competitive apo-peroxidase assay” (Bayer Corporation, priority 1999, dated 2001).

Key:
[1] = biological target: T1, apo-POD (Armoracia rusticana, UniProt P00433); assay: Metal porphyrin study: reactivation of apo-peroxidase (Example IV); assay type: biochemical, horse radish; conditions: 12 μM apo-POD, 12 μM metal porphyrin, HEMASTIX no lepidine/pH 7.5
T1 construct: purchased Sigma Chemical Company, St. Louis, Mo
T1 sequence (P00433 31-353): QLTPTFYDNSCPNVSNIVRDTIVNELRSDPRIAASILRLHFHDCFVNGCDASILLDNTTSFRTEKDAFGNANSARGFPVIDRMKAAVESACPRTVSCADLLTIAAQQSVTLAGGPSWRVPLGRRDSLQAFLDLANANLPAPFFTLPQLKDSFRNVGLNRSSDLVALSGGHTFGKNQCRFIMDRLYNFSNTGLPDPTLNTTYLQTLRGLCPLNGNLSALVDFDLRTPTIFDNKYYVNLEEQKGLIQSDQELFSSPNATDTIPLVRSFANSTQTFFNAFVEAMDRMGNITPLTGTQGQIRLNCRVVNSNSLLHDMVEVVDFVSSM
Protocol: (§1) In this example, other metal porphyrins were tested for their ability to reactivate different types of apo-peroxidases. Metals such as Fe, Cu, Mg, Zn, Ni, Mn, Co and Pd were complexed to hematin and added to the peroxidase detecting agent. Metals such as Mn, Fe, Cu and Co and porphyrins other than hematin, i.e. deuteroporphyrin and coproporphyrin were also shown to provide the desired response.

[2] = biological target: T1, apo-POD; assay: Interference study with peroxidase detecting dry reagent (Example III); assay type: biochemical, horse radish
Protocol: In this example, a peroxidase detecting dry reagent with resistance to 0.81 mg/dL hemoglobin (or myoglobin) and 25 mg/dL ascorbate and sufficient sensitivity to detect apo-peroxidase reactivation was used. […]
The reagent was tested by dipping it into solutions containing the interfering substance with and without Fe hematin. […]

[3] = biological target: T2, apo-Hb (Homo sapiens, UniProt P68871+P69905); assay: Metal porphyrin study: reactivation of apo-hemoglobin (Example IV); assay type: biochemical; conditions: 12 μM apo-Hb, 12 μM metal porphyrin, HEMASTIX no lepidine/pH 7.5
T2 construct: made in house
T2 sequence (P69905 2-142 limits assumed): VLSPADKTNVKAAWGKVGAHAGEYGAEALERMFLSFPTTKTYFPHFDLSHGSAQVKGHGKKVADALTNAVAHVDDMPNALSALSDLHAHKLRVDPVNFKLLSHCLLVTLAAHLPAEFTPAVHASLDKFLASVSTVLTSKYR
T2 sequence (P68871 2-147 limits assumed): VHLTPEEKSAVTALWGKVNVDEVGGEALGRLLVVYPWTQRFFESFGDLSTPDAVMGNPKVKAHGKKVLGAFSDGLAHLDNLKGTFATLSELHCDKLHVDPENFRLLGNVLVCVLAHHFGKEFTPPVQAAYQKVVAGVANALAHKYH
Protocol: as §1
A 0.7% solution of hemoglobin was lowered to pH 1.5 and the resulting solution was ultrafiltered through a 10 KDa cutoff membrane followed by several changes of water. Filtered material was reconstituted into water. The apo-hemoglobin passed […]. […] It produced a HEMASTIX® result of +++++ indicating a high concentration of hemoglobin.

[4] = Metal porphyrin study: metal porphyrin in water without apo-enzyme (Example IV); assay type: biochemical; conditions: 12 μM metal porphyrin, HEMASTIX no lepidine/pH 7.5
Protocol: as §1

[5] = biological target: Apoglucose oxidase; conditions: apoglucose oxidase and FAD; U.S. Pat. No. 4,493,890; read-out: binding constant; cited from earlier work

| SMILES | % R @ 90 second read time on CLINITEK-200+, mean [1] [% R] | % R response, mean ([2]; +3.6 μM Fe Hematin, HEMASTIX (lepidine/pH 6.3), Water) [%] | % R response, mean ([2]; +3.6 μM Fe Hematin, HEMASTIX (no lepidine/pH 7.5), Water) [%] | % R response, mean ([2]; +12 μM Fe Hematin/12 μM apo-POD, HEMASTIX (lepidine/pH 6.3), Water) [%] | % R response, mean ([2]; +12 μM Fe Hematin/12 μM apo-POD, HEMASTIX (no lepidine/pH 7.5), 25 mg/dL Ascorbic) [%] | % R response, mean ([2]; +12 μM Fe Hematin/12 μM apo-POD, HEMASTIX (no lepidine/pH 7.5), Water) [%] | % R response, mean ([2]; +12 μM Fe Hematin, HEMASTIX (lepidine/pH 6.3), 25 mg/dL Ascorbic) [%] | % R response, mean ([2]; +12 μM Fe Hematin, HEMASTIX (lepidine/pH 6.3), Water) [%] | % R response, mean ([2]; +12 μM Fe Hematin, HEMASTIX (no lepidine/pH 7.5), 25 mg/dL Ascorbic) [%] | % R response, mean ([2]; +12 μM Fe Hematin, HEMASTIX (no lepidine/pH 7.5), Water) [%] | % R response, mean ([2]; +36 μM Fe Hematin, HEMASTIX (lepidine/pH 6.3), Water) [%] | % R @ 90 second read time on CLINITEK-200+, mean [3] [% R] | % R @ 90 second read time on CLINITEK-200+, mean [4] [% R] | Kd [5] [nM] |
| --- | --- | --- | --- | --- | --- | --- | --- | --- | --- | --- | --- | --- | --- | --- |
| C=CC1=C(C)c2cc3[n-]c(cc4[n-]c(cc5nc(cc1n2)C(C)=C5C=C)c(C)c4CCC(=O)O)c(CCC(=O)O)c3C.O.[Fe+2] [Fe Hematin] | 50.9 | 8.8 | 79.2 | 4.1 | 55.3 | 54.0 | 5.3 | 6.4 | 73.2 | 72.4 | 3.1 | 45.3 | 71.5 | – |
| Cc1cc2nc3c(=O)[nH]c(=O)nc-3n(C[C@H](O)[C@H](O)[C@H](O)COP(=O)(O)OP(=O)(O)OC[C@H]3O[C@@H](n4cnc5c(N)ncnc54)[C@H](O)[C@@H]3O)c2cc1C [FAD, flavin adenine dinucleotide] | – | – | – | – | – | – | – | – | – | – | – | – | – | ~0.1 |
